Assays:
[1] = test system: myostatin gene expression in C2C12 cells; test: Inhibition of myostatin expression in C2C12 cells (qPCR); assay type: cell-based; settings: Mus musculus, percentage myostatin gene expression in cells in contact with the compounds related to control cells, C2C12, 6 h
Method: After several experiments in which the C2C12 cells differentiated into myotubes were incubated in the presence of IGF-1 or 20E for 2 h 30 or 6 h, two screening tests were developed. Thus, the phosphorylation of the S6 protein kinase and the expression of the myostatin gene were studied in order to determine their modulation by a growth hormone or an ecdysone and to characterize these modulations from a statistical point of view. The C2C12 myoblast cells (ATCC CRL-1772) are seeded into 24-well plates at a density of 30 000 cells per well and cultured in a DMEM medium containing glucose in a proportion of 4.5 g/l and supplemented with fetal calf serum (10%) and with antibiotics (penicillin and streptomycin). Forty-eight hours later, the myoblasts are induced to differentiate by partial serum depletion (2% instead of 10%) for 5 days. The cells are then placed in a medium which is glucose-depleted (DMEM containing 1 g/l of glucose) and serum-free in the presence of the test molecules or of the references (100 ng/ml IGF-1 or 10 μ[…]) for 6 h. At the end of the experiment, the messenger RNAs (mRNAs) are extracted using the conventional methodology based on phenol and chloroform. Briefly, the cells are lysed in a Trizol solution (Sigma T9424) containing a strong acid and phenol. The mRNAs are separated from the proteins by addition of chloroform and then centrifugation. They are then precipitated from isopropanol and then suspended at a concentration of 1 μg/μl in an […] ultrapure water. 1 μg of mRNA is then converted by reverse transcription into complementary DNA by the AMV enzyme in the presence of a primer and of a mixture of nucleotides according to the protocol given by the supplier (Applied Biosystems 4368814). […] The qPCRs are carried out on a 7900HT Fast real-Time PCR detection system (Applied Biosystems). The programming conditions are standard and consist of 1 cycle at 95° C. for 15 min, followed by 40 cycles at 95° C. for 15 s and at 60° C. for 1 min and the program ends with a melt curve step between 60° C. and 95° C. […] Fluorescent probes bind to the double-stranded DNA and are fluorescent only once bound to the DNA. A fluorescence threshold is established by the machine's program. When the amount of DNA allows the fluorescent probe to exceed this threshold, a PCR cycle number, called “Ct” for “Cycle Threshold”, is obtained. It is this value which forms the basis of the calculations to quantify the DNA relatively. A ratio R is established between the amount of starting DNA of a sample and that of a control, which has not undergone treatment (i.e. […] R=2^-ΔΔCt).

[2] = test system: S6 kinase (S6K1) phosphorylation in C2C12 cells; test: Phosphorylation of the S6 kinase in C2C12 cells (ELISA pS6K T389), protein synthesis; assay type: cell-based, mouse; settings: Mus musculus, C2C12, 2 h; for activity at 10 µM: read-out: Protein synthesis (percentage increase in S6K phosphorylation in muscle cells); for activity: test compounds and 20E reference (10 μM), read-out: S6K1 phosphorylation level
Method: After several experiments in which the C2C12 cells differentiated into myotubes were incubated in the presence of IGF-1 or 20E for 2 h 30 or 6 h, two screening tests were developed. Thus, the phosphorylation of the S6 protein kinase and the expression of the myostatin gene were studied in order to determine their modulation by a growth hormone or an ecdysone and to characterize these modulations from a statistical point of view.
The C2C12 myoblast cells (ATCC CRL-1772) are seeded into 6-well plates at a density of 170 000 cells per well and cultured in a DMEM medium containing glucose in a proportion of 4.5 g/l and supplemented with fetal calf serum (10%) and with antibiotics (penicillin and streptomycin). Forty-eight hours later, the myoblasts are induced to differentiate by partial serum depletion (2% instead of 10%) for 5 days. The cells are then placed in a medium which is glucose-depleted (DMEM containing 1 g/l of glucose) and serum-free in the presence of the test molecules or of the references (100 ng/ml IGF-1 or 10 μM 20E) for 2 h. At the end of the experiment, the cells are lysed in a commercial lysis buffer (Invitrogen FNN0011) supplemented with a commercial mixture of anti-proteases (Roche 05056489001). After centrifugation, the cytoplasmic fraction containing the soluble proteins is kept and the protein concentration is determined using a commercial kit (Biorad 500-0114), the principle of which is composed of assaying by the Lowry method. The assaying of the S6 kinase phosphorylation is carried out using a commercial ELISA (Enzyme Linked ImmunoSorbent Assay) kit (Cell signaling 7063). Briefly, 50 μg of protein lysate are deposited in the wells of a 96-well microplate and incubated overnight at 4° C. with the solution of antigen specific for the pS6 kinase threonine 389 antibody. The binding of the antigen to the bottom of the wells is done electrostatically. The solution of antibody to be assayed (pS6K T389) is then incubated at 37° C. in the wells for 2 hours. The antibodies bind specifically to the antigen. The wells are then washed with washing buffer in order to remove the antigen-specific primary antibodies to be assayed which are in excess. The third step consists in binding the detection antibody. The solution of detection antibodies is incubated at 37° C. in the wells for 1 hour. The wells are then washed in order to remove the excess detection antibodies. It should be noted that the detection antibodies are coupled to an enzyme which, in the presence of its substrate, converts it into a reaction product that can be detected and measured by virtue of the appearance of a coloration. […] The appearance of a blue coloration in the substrate indicates the presence of the antibody to be assayed. In order to prevent any saturation phenomenon, a stop solution (generally containing […]) is added and brings about a change in coloration, which goes from blue to yellow. The strength thereof is proportional to the amount of enzyme present and thus to the concentration of antibody sought. The strength of the signal is measured using spectrophotometry at a wavelength of 450 nm.

| SMILES | mrna remaining at 10 µM [1] | activity at 10 µM [2] | activity [2] |
| --- | --- | --- | --- |
| C[C@]12C[C@H](O)[C@H](O)C[C@H]1C(=O)C=C1C2CC[C@]2(C)[C@@H](C(=O)CN3CCC(O)CC3)CC[C@@]12O (stereo partly drawn) [Compound 88, (2S,3R,5R,10R,13R,14S,17S)-2,3,14-trihydroxy-17-[2-(4-hydroxy-1-piperidyl)acetyl]-10,13-dimethyl-2,3,4,5,9,11,12,15,16,17-decahydro-1H-cyclopenta[a]phenanthren-6-one] | 71 to 85% | 110 to 129% | ~120% |
| COCCN(C)C(C)[C@H]1CC[C@@]2(O)C3=CC(=O)[C@@H]4C[C@@H](O)[C@@H](O)C[C@]4(C)C3CC[C@]12C (stereo partly drawn) [Compound 76, (2S,3R,5R,10R,13R,14S,17S)-2,3,14-trihydroxy-17-[1-(2-methoxyethyl(methyl)amino)ethyl]-10,13-dimethyl-2,3,4,5,9,11,12,15,16,17-decahydro-1H-cyclopenta[a]phenanthren-6-one] | < 70% | 110 to 129% | ~120% |
| COCCNC(C)[C@H]1CC[C@@]2(O)C3=CC(=O)[C@@H]4C[C@@H](O)[C@@H](O)C[C@]4(C)C3CC[C@]12C (stereo partly drawn) [Compound 42, (2S,3R,5R,10R,13R,14S,17S)-2,3,14-trihydroxy-17-[1-(2-methoxyethylamino)ethyl]-10,13-dimethyl-2,3,4,5,9,11,12,15,16,17-decahydro-1H-cyclopenta[a]phenanthren-6-one] |  | > 130% | 130 to 140% |
| CC(NCc1cccnc1)[C@H]1CC[C@@]2(O)C3=CC(=O)[C@@H]4C[C@@H](O)[C@@H](O)C[C@]4(C)C3CC[C@]12C (stereo partly drawn) [Compound 43, (2S,3R,5R,10R,13R,14S,17S)-2,3,14-trihydroxy-10,13-dimethyl-17-[1-(3-pyridylmethylamino)ethyl]-2,3,4,5,9,11,12,15,16,17-decahydro-1H-cyclopenta[a]phenanthren-6-one] | < 70% | 110 to 129% | ~120% |
| C=CCCO/N=C(/C)[C@H]1CC[C@@]2(O)C3=CC(=O)[C@@H]4C[C@@H](O)[C@@H](O)C[C@]4(C)C3CC[C@]12C (stereo partly drawn) [Compound 28, (2S,3R,5R,10R,13R,14S,17S)-17-(N-but-3-enoxy-C-methylcarbonimidoyl)-2,3,14-trihydroxy-10,13-dimethyl-2,3,4,5,9,11,12,15,16,17-decahydro-1H-cyclopenta[a]phenanthren-6-one] | < 70% | > 130% | 130 to 140% |
| COCC(=O)N(CC1CCCO1)C(C)[C@H]1CC[C@@]2(O)C3=CC(=O)[C@@H]4C[C@@H](O)[C@@H](O)C[C@]4(C)C3CC[C@]12C (stereo partly drawn) [Compound 62, 2-methoxy-N-(tetrahydrofuran-2-ylmethyl)-N-[1-[(2S,3R,5R,10R,13R,14S,17S)-2,3,14-trihydroxy-10,13-dimethyl-6-oxo-2,3,4,5,9,11,12,15,16,17-decahydro-1H-cyclopenta[a]phenanthren-17-yl]ethyl]acetamide] | < 70% | > 130% | 130 to 140% |
| C=CCCC(=O)N(CCOC)C(C)[C@H]1CC[C@@]2(O)C3=CC(=O)[C@@H]4C[C@@H](O)[C@@H](O)C[C@]4(C)C3CC[C@]12C (stereo partly drawn) [Compound 52, N-(2-methoxyethyl)-N-[1-[(2S,3R,5R,10R,13R,14S,17S)-2,3,14-trihydroxy-10,13-dimethyl-6-oxo-2,3,4,5,9,11,12,15,16,17-decahydro-1H-cyclopenta[a]phenanthren-17-yl]ethyl]pent-4-enamide] | < 70% | 110 to 129% | ~120% |
| C[C@]12C[C@H](O)[C@H](O)C[C@H]1C(=O)C=C1C2CC[C@]2(C)[C@@H](C(=O)CN3CCC(CCO)CC3)CC[C@@]12O (stereo partly drawn) [Compound 89, (2S,3R,5R,10R,13R,14S,17S)-2,3,14-trihydroxy-17-[2-[4-(2-hydroxyethyl)-1-piperidyl]acetyl]-10,13-dimethyl-2,3,4,5,9,11,12,15,16,17-decahydro-1H-cyclopenta[a]phenanthren-6-one] | < 70% | > 130% | 130 to 140% |
| CCOC(=O)CSCC(=O)[C@H]1CC[C@@]2(O)C3=CC(=O)[C@@H]4C[C@@H](O)[C@@H](O)C[C@]4(C)C3CC[C@]12C (stereo partly drawn) [Compound 92, Ethyl 2-[2-oxo-2-[(2S,3R,5R,10R,13R,14S,17S)-2,3,14-trihydroxy-10,13-dimethyl-6-oxo-2,3,4,5,9,11,12,15,16,17-decahydro-1H-cyclopenta[a]phenanthren-17-yl]ethyl]sulfanylacetate] | < 70% | 110 to 129% | ~120% |
| CC([C@H]1CC[C@@]2(O)C3=CC(=O)[C@@H]4C[C@@H](O)[C@@H](O)C[C@]4(C)C3CC[C@]12C)N(CC(F)F)C(=O)c1ccco1 (stereo partly drawn) [Compound 67, N-(2,2-difluoroethyl)-N-[1-[(2S,3R,5R,10R,13R,14S,17S)-2,3,14-trihydroxy-10,13-dimethyl-6-oxo-2,3,4,5,9,11,12,15,16,17-decahydro-1H-cyclopenta[a]phenanthren-17-yl]ethyl]furan-2-carboxamide] | < 70% | > 130% | 130 to 140% |
| COCCN(C(=O)COC)C(C)[C@H]1CC[C@@]2(O)C3=CC(=O)[C@@H]4C[C@@H](O)[C@@H](O)C[C@]4(C)C3CC[C@]12C (stereo partly drawn) [Compound 41, 2-methoxy-N-(2-methoxyethyl)-N-[1-[(2S,3R,5R,10R,13R,14S,17S)-2,3,14-trihydroxy-10,13-dimethyl-6-oxo-2,3,4,5,9,11,12,15,16,17-decahydro-1H-cyclopenta[a]phenanthren-17-yl]ethyl]acetamide] | < 70% | 110 to 129% | ~120% |
| CC([C@H]1CC[C@@]2(O)C3=CC(=O)[C@@H]4C[C@@H](O)[C@@H](O)C[C@]4(C)C3CC[C@]12C)N(CC1CCCO1)C(=O)c1ccco1 (stereo partly drawn) [Compound 63, N-(tetrahydrofuran-2-ylmethyl)-N-[1-[(2S,3R,5R,10R,13R,14S,17S)-2,3,14-trihydroxy-10,13-dimethyl-6-oxo-2,3,4,5,9,11,12,15,16,17-decahydro-1H-cyclopenta[a]phenanthren-17-yl]ethyl]furan-2-carboxamide] | < 70% | 110 to 129% | ~120% |

Source: patent US10316056B2, “Chemical compounds and use thereof for improving muscular quality” (BIOPHYTIS, priority 2014, dated 2019)
